Read-outs that look alike come from different tables or passages of the source.
Experiments:
[1] = tested on: T. cruzi intracellular amastigotes; set-up: method as in PMID 25740547; conditions: high-throughput screening hit ref 13; read-out: EC50 against T. cruzi intracellular amastigotes; cited from earlier work
[2] = tested on: L. donovani Intramacrophage Amastigotes; assay: L. donovani intramacrophage amastigote drug sensitivity; format: cell-based; conditions: Leishmania donovani, read-out: EC50 values, L. donovani Intra-MAC
Method: (§1) T. cruzi and L. donovani intracellular amastigote drug sensitivity assays were conducted as previously described.[42],[43]

[3] = tested on: T. cruzi Intra-Vero Cells (intracellular amastigotes); assay: T. cruzi intracellular amastigote (Intra-Vero) drug sensitivity; format: cell-based; conditions: Trypanosoma cruzi; intracellular amastigotes in Vero cells
Method: as §1

[4] = biological target: T1, complex III (cytochrome bc1 complex) (Leishmania donovani, UniProt A5HU08, F187I); assay: biochemical; format: biochemical
T1 sequence (A5HU08 1-290 F187I): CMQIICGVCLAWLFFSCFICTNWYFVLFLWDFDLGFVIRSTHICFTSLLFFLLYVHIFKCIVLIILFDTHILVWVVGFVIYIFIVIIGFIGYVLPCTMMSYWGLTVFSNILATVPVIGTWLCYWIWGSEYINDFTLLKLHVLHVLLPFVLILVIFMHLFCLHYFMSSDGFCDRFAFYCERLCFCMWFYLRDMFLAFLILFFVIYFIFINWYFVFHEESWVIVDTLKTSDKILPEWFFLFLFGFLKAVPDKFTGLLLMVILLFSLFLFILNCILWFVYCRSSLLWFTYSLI
T1 sequence (A0A3S7WPP0 1-258 partner): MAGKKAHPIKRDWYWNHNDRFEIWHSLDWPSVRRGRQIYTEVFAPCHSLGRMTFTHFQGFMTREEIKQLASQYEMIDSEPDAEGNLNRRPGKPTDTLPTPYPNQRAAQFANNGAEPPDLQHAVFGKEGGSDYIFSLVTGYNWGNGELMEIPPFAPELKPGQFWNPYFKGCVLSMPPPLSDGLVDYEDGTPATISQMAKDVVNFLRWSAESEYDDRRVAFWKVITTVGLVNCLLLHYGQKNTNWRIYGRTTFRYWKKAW

[5] = biological target: complex III (cytochrome bc1 complex) (Leishmania donovani, UniProt A5HU08); assay: biochemical; format: biochemical
[6] = tested on: HepG2 Cells; assay: HepG2 cell potency; format: cell-based; conditions: Homo sapiens
Method: Table 1 Compound Efficacy: Potencies of Compounds Were Determined against L. donovani Promastigotes (Pro), L. donovani Intramacrophage Amastigotes (Intra-MAC), T. cruzi Epimastigotes (Epi), T. cruzi Intra-Vero Cells (Intra-Vero), T. brucei Bloodstream Forms (BSF), T. brucei Procyclics (Pro), and HepG2 Cells ^a | column: HepG2

[7] = tested on: T. brucei Procyclics; assay: T. brucei procyclic drug sensitivity (resazurin); format: cell-based, Trypanosoma brucei; conditions: read-out: EC50 values, T. brucei Pro
Method: To examine the effects of test compounds on growth, mid log procyclics were seeded into 96-well plates at a cell density of 5 × 10^5 cells mL^–1. Cells were exposed to test compounds over a range of concentrations (2-fold serial dilutions). Following 72 h of incubation in the presence of drug, 500 μM resazurin was added to each well and fluorescence measured after a further 2 h incubation.

[8] = tested on: L. donovani intracellular amastigotes within macrophages; assay: microbe, parasite or virus in culture; format: cell-based; conditions: Leishmania donovani
[9] = tested on: T. cruzi epimastigotes; assay: T. cruzi epimastigote respiration (O2 consumption, MitoXpress-Xtra); format: cell-based; conditions: Trypanosoma cruzi, read-out: O2 consumption, IC50 values, T. cruzi
Method: Compounds were predispensed (150 nL well^–1) into 384-well assay plates using an Echo liquid handler (Labcyte Inc.). […] The negative control for this assay was 0.2% DMSO, equivalent to the final concentration of solvent used in drug dilutions.
Our O2 consumption assay was an adaptation of the assay described by Khare and colleagues.[14] Briefly, assay buffer (250 mM sucrose, 15 mM KCl, 5 mM MgCl2, 1 mM EGTA, 30 mM K2HPO4, pH 7.4; 25 μL) was added to 384-well assay plates and incubated at 37 °C for 10 min. Mid log T. cruzi epimastigotes were harvested (1600g for 10 min at 4 °C), washed three times with buffer A (10 mM Tris-HCl, pH 7.4, 230 mM mannitol, 70 mM sucrose, 0.2 mM EDTA, 0.2% bovine serum albumin, 0.5 mM PMSF), and finally resuspended at 1.5 × 10^8 epimastigotes mL^–1. Following resuspension, 3 × 10^6 epimastigotes (20 μL) were dispensed into each well followed by MitoXpress-Xtra probe (15 μL, Agilent) resulting in a final assay volume of 60 μL. Plates were gently shaken, and 30 μL of HS mineral oil (Agilent) was then added to each well to prevent oxygen exchange between the assay buffer and air. Plates were incubated for 90 min at 37 °C, and fluorescence was then measured using an EnVision MultiMode plate reader (PerkinElmer) using excitation and emission wavelengths of 380 and 650 nm, respectively.
Data were normalized to percent of biological response by using positive (i.e., highest response achieved using a chemical tool compound, RactinomycinA) or negative (i.e., lowest response achieved in the absence of any testing compound, RDMSO) controls by using the following equation: [drawing 3] where Rx is the assay response measured in the presence of test compounds.

[10] = tested on: T. cruzi epimastigotes; assay: microbe, parasite or virus in culture; format: cell-based; conditions: Trypanosoma cruzi
[11] = biological target: complex III (cytochrome bc1 complex) (Trypanosoma cruzi, UniProt Q9T479); assay: Complex III (cytochrome c reduction) assay, T. cruzi lysate; format: biochemical; conditions: mitochondria-enriched lysate of epimastigotes
[12] = tested on: L. donovani promastigotes; assay: microbe, parasite or virus in culture; format: cell-based, Leishmania donovani; conditions: for EC50: Leishmania donovani
[13] = tested on: T. brucei Bloodstream Forms; assay: T. brucei bloodstream form drug sensitivity; format: cell-based, Trypanosoma brucei; conditions: read-out: EC50 values, T. brucei BSF
Method: EC50 values for test compounds were determined as previously described.[40]

[14] = tested on: T. cruzi Intra-Vero Cells (intracellular amastigotes); set-up: method as in PMID 26186534; conditions: reported previously ref 14; cited from earlier work
[15] = tested on: T. cruzi epimastigotes; set-up: method as in PMID 26186534; conditions: reported previously ref 14; read-out: O2 consumption, IC50 values, T. cruzi; cited from earlier work
[16] = biological target: T2, complex III (cytochrome bc1 complex) (Leishmania donovani, UniProt A5HU08); assay: biochemical; format: biochemical; conditions: read-out: complex III IC50 values, Compound 1 RES1 lysate; lysate of L. donovani Compound 1 RES1 cell line
T2 sequence (A5HU08 1-290): T1 sequence (A5HU08 1-290 F187I)
T2 sequence (A0A3S7WPP0 1-258 partner): T1 sequence (A0A3S7WPP0 1-258 partner)

[17] = HepG2 cells, read-out: EC50 values, HepG2
[18] = Macrophage, read-out: Leishmania EC50, Compound 1 RES1
[19] = Macrophage, read-out: Leishmania EC50, Compound 2 RES1
[20] = intra-macrophage, WT parasites, read-out: Leishmania EC50, WT
[21] = epimastigotes (3 × 10^6), MitoXpress-Xtra probe
[22] = wild-type epimastigotes, read-out: EC50 values, T. cruzi Epi
[23] = wild-type promastigotes, read-out: EC50 values, L. donovani Pro
[24] = Trypanosoma brucei, bloodstream form

SMILES	EC50 [2]	EC50 [3]	IC50 [5]	EC50 [6, 17]	EC50 ([7]; Trypanosoma brucei, procyclics)	EC50 [8, 18]	EC50 [8, 19]	EC50 [8, 20]	IC50 [9, 21]	EC50 [10, 22]	IC50 [11]	EC50 [12, 23]	EC50 [13, 24]	other results
Cc1nc2nc(C)c(Cc3ccc(C(C)C)cc3)c(=O)n2[nH]1 [TCMDC-143087]	–	–	–	–	–	–	–	–	–	–	–	–	–	EC50 [1]: 0.25 µM
Cc1cc(C)c2c(N)c(C(=O)N3CCC(C)(C)c4ccccc43)sc2n1 [compound 2]	1.1 ± 0.6 µM	0.03 ± 0.01 µM	0.099 ± 0.013 µM	> 50 µM	0.14 ± 0.014 µM	0.03 µM	4.4 µM	0.4 µM	0.51 ± 0.119 µM	0.071 ± 0.002 µM	0.1 ± 0.024 µM	0.024 ± 0.002 µM	8 ± 0.97 µM	IC50 [4]: 4.2 ± 0.5 µM
CCc1c(C)c(C#N)c2nc3ccccc3n2c1O [GNF7686, reference compound]	> 50 µM	–	1.6 ± 0.3 µM	> 50 µM	0.521 µM	–	–	–	–	0.71 ± 0.017 µM	0.55 ± 0.097 µM	0.57 ± 0.051 µM	> 50 µM	EC50 ([7]; procyclics): 0.52 ± 0.013 µM; EC50 [14]: 0.15 ± 0.03 µM; IC50 [15]: 0.21 µM; relative sensitivity of L. donovani promastigotes bearing cytochrome b C222F mutation ([12]; compound 1-selected clone, relative to wild-type): markedly cross-resistant; relative sensitivity of L. donovani promastigotes bearing cytochrome b G37A mutation ([12]; compound 1-selected clones, relative to wild-type): remaining sensitive
CC(=O)Nc1ccc2[nH]c(=O)n([C@H]3CC[C@H](C(C)C)CC3)c(=O)c2c1 [compound 3]	> 50 µM	0.15 ± 0.046 µM	> 13 µM	7.3 ± 0.06 µM	0.088 ± 0.002 µM	–	–	–	0.19 ± 0.038 µM	0.32 ± 0.012 µM	0.086 ± 0.039 µM	1.64 ± 0.054 µM	8.7 ± 0.47 µM	–
CCCCCC[C@H]1C(=O)O[C@H](C)[C@H](NC(=O)c2cccc(NC=O)c2O)C(=O)O[C@@H](C)[C@@H]1OC(=O)CC(C)C [antimycin A, reference compound]	–	–	–	–	–	–	–	–	–	0.028 ± 0.001 µM	–	0.002 ± 0.0001 µM	–	EC50 ([6]; HepG2, read-out: EC50 values, HepG2): < 1 µM; EC50 ([7]; Trypanosoma brucei): 0.018 ± 0.0005 µM; IC50 [9]: 0.2 ± 0.036 µM; EC50 ([13]; Trypanosoma brucei): > 50 µM
Cc1nn2c(=O)c(Cc3ccc(Cl)cc3)c(C)[nH]c2c1C [compound 1]	1.5 ± 0.4 µM	0.02 ± 0.003 µM	0.044 ± 0.007 µM	> 50 µM	0.097 ± 0.003 µM	1.3 µM	0.02 µM	0.1 µM	0.15 ± 0.036 µM	0.21 ± 0.007 µM	0.072 ± 0.016 µM	0.019 ± 0.001 µM	6.6 ± 0.47 µM	IC50 [16]: 0.22 ± 0.051 µM; EC50 ([10]; WT epimastigotes, resistance study, read-out: EC50 against WT T. cruzi (Figure 2)): 0.12 ± 0.006 µM; EC50 ([10]; compound 1-resistant epimastigote clone RES I, read-out: EC50 against T. cruzi RES I): 1.4 ± 0.078 µM; EC50 ([10]; compound 1-resistant epimastigote clone RES II, read-out: EC50 against T. cruzi RES II): 2.5 ± 0.062 µM; EC50 ([10]; compound 1-resistant epimastigote clone RES III, read-out: EC50 against T. cruzi RES III): 3.8 ± 0.16 µM; EC50 ([12]; WT promastigotes, resistance study, read-out: EC50 against WT L. donovani (Figure 2)): 0.0215 ± 0.0005 µM; EC50 ([12]; compound 1-resistant promastigote clone RES I, read-out: EC50 against L. donovani RES I): 1.3 ± 0.014 µM; EC50 ([12]; compound 1-resistant promastigote clone RES II, read-out: EC50 against L. donovani RES II): 1.3 ± 0.096 µM; EC50 ([12]; compound 1-resistant promastigote clone RES III, read-out: EC50 against L. donovani RES III): 0.79 ± 0.027 µM; EC50 ([13]; bloodstream form, listed as DDD01542111 (compound 1)): 6.7 ± 0.47 µM

Source: publication PMC7076694, “The Qi Site of Cytochrome b is a Promiscuous Drug Target in Trypanosoma cruzi and Leishmania donovani” (ACS Infectious Diseases, 2020)
